Laboratory results as given in patent US20230320345A1, “METHODS AND COMPOSITIONS FOR INHIBITING ICE RECRYSTALLIZATION” (UNIVERSITY OF TENNESSEE RESEARCH FOUNDATION, priority 2022, published 2023).
Where “and” joins values, the source holds several entries; their conditions need not be identical. Equal entries are not always repeated. Entries after “also recorded” stand apart in the source; their conditions may differ.

What was measured:
[1] = Optical photos of bile salt solutions as a function of temperature, with crossed polarized filters; assay type: physicochemical; settings: 25 mM in PBS; for liquid crystal phase: all temperatures, crossed polarized filter; for appearance of solution: temperatures from 90° C. to -15° C.
Description: (§1) Viscosity profiles, critical micelle concentration (CMC), and optical photos of bile salts. The critical micelle concentration of a colloid or surfactant is the concentration of surfactant above which micelles form, and any additional surfactant added to the system will form micelles. The viscosity profile of NaC, NaDC, NaCC, and NaLC at a concentration of 25 mM in 1x PBS were determined by an AR2000 rheometer from TA Instruments in New Castle, PA, with a 40 mm aluminum parallel plate at 25° C. The samples were measured from 0.1 to100 s^-1 shear rate after pre-shearing at 50 s^-1 for 30 seconds with or without an equilibrium time of 30 min. The CMCs were determined by a UV-vis spectroscopy method with slight modifications described in Reis, S.; Moutinho, C. G.; Matos, C.; de Castro, B.; Gameiro, P.; Lima, J. L., “Noninvasive methods to determine the critical micelle concentration of some bile acid salts,” Anal Biochem 2004, 334 (1), 117-26, which is incorporated herein by reference. NaC, NaDC, and NaCC were dissolved in water at concentrations from 1 to 25 mM. The absorbance spectra from 200 to 300 nm were collected by an Evolution 201 spectrometer from Thermo Scientific, Waltham, MA to find the peak absorbance. The CMC was determined from the sudden change of peak absorbance as concentration increases. The optical photos of bile salt in 1X PBS solutions were taken after incubation at each designed temperature for 20 minutes.

[2] = Ice recrystallization inhibition (IRI) "splat" assay; settings: for IRI activity: splat assay, 30 min incubation at -8° C., 12.5-100 mM; for %MLGS compared with PEG: at 40 mg/mL
Description: Ice recrystallization inhibition (IRI) activity of bile salts. NaC, NaDC, NaCC, and NaLC were tested for IRI activity at concentrations of 12.5, 25.0, 50.0, and 100 mM in 1x PBS using the “splat” assay test known and described in Knight, C. A.; Hallett, J.; Devries, A. L., “Solute effects on ice recrystallization: An assessment technique,” Cryobiology 1988, 25 (1), 55-60, which is incorporated herein by reference. 100 mM NaLC was not tested due to its gelation. A droplet of the sample was gently squeezed out of a syringe with a 21-gauge needle from Exelint, Redondo Beach, CA, and was dripped from 1.4 m above onto a microscope slide sitting on a metal block surrounded by dry ice. Upon hitting the slide surface, the droplet instantaneously froze into an ice wafer. The ice wafer was immediately transferred into the chamber of a cryostage system from Instec, Boulder, CO, for incubation. Pictures were taken after 30 min incubation at -8° C. by a BX51 polarized microscope from Olympus, Tokyo, Japan, equipped with a DP70 camera from Olympus. PEG was tested as a negative control at concentrations of 5, 10, 20, and 40 mg/mL in 1x PBS to match the mass concentrations (w/v) of bile salts. PVA was tested as a positive control at low concentrations, including 0.05, 0.10, 0.20, and 0.40 mg/mL in 1x PBS, because of its high IRI activity. The largest lengths of the five largest ice crystals in one picture were measured by Image J software from National Institutes of Health, Bethesda, MD. Each sample was performed in triplicate. Each replication had five pictures randomly selected, representing a total of 75 ice crystals for each sample. The percent mean largest grain size (%MLGS) was calculated by averaging three replications divided by the blank. Data are reported as the mean ± standard derivation of three replications. The %MLGS calculations are plotted in FIG. 3 against the concentrations of the bile acids and the controls.

[3] = as above; settings: concentrations close to or below literature CMC value, PBS (FIG. 6D)
[4] = Ice growth kinetics of NaLC; settings: 1x PBS, -8° C., up to 60 min
Description: Ice growth kinetics of NaLC. The ice growth kinetics in the presence of NaLC at 12.5, 25, and 50 mM was determined at -8° C. in 1x PBS. Five pictures were taken every 5 min for a total time of 60 min. %MLGS at each time was calculated against its blank control at the same time.

[5] = Atomic force microscopy (AFM) analysis of bile salt solutions; assay type: physicochemical; settings: 25 mM sample, dried on mica
Description: Atomic force microscopy (AFM) analysis of bile salt solutions. The AFM procedure was followed as set forth in Schefer, L.; Adamcik, J.; Diener, M.; Mezzenga, R., “Supramolecular chiral self-assembly and supercoiling behavior of carrageenans at varying salt conditions,” Nanoscale 2015, 7 (39), 16182-16188, which is incorporated herein by reference. Briefly, 0.01% (v/v) APTES in water was incubated on a freshly peeled mica surface for 1 min. APTES solution was then washed away using water on a P6700 spin coater from Specialty Coating Systems Inc., Indianapolis, IN, at 2,000 rpm. About 200 µL of 25 mM sample was loaded on the mica surface and incubated for 30 seconds. Then the mica was rinsed with 1.0 mL water drop-wise and dried in a vacuum chamber at room temperature. All mica surfaces were observed by a Multimode VIII AFM from Bruker, Santa Barbara, USA, in ScanAsyst-Air mode. All images were flattened using Nanoscope Analysis software from Bruker, Santa Barbara, USA, before analyzing by an ImageJ instrument from National Institutes of Health, Bethesda, MD.

[6] = Viscosity profile by rheometer / gel formation; assay type: physicochemical; settings: for viscosity: 25 mM in 1x PBS, 25° C.
Description: as §1

| helical structure by AFM [5] | helix length [5] [µm] | helix turn [5] [µm] | helix width [5] [µm] | gel formation ([6]; 100 mM, after sample preparation) | viscosity ([6]; fresh-prepared) | Compound | temperature at which ices were formed [1] [°C] | liquid crystal phase [1] | appearance of solution [1] | IRI activity ([2]; 1x PBS) | IRI activity (%MLGS) [3] | ice growth ([4]; 12.5 mM) | ice growth ([4]; 25.0 mM) | ice growth ([4]; 50.0 mM) | ice crystal size compared to blank 1x PBS and negative control PEG ([2]; 10 mg/mL (25 mM), 30 min at -8° C.) | ice crystal sizes compared with positive control PVA ([2]; 10 mg/mL NaLC, 1x PBS, 30 min at -8° C.) | concentration at which IRI active ([2]; 1x PBS, 30 min at -8° C.) | viscosity ([6]; after 30-min equilibrium) | %MLGS compared with PEG ([2]; 1x PBS, 30 min at -8° C.) |
| --- | --- | --- | --- | --- | --- | --- | --- | --- | --- | --- | --- | --- | --- | --- | --- | --- | --- | --- | --- |
| – | – | – | – | – | – | C[C@H](CCC(=O)[O-])[C@H]1CC[C@H]2[C@@H]3[C@H](O)C[C@@H]4C[C@H](O)CC[C@]4(C)[C@H]3C[C@H](O)[C@]12C.[Na+] [NaC, sodium cholate] | -15 | no liquid crystal phase was observed | clear | not IRI active | – | – | – | – | – | – | – | – | – |
| helical structure | 1.72 ± 0.37 | 0.19 ± 0.04 | 0.14 ± 0.01 | gel was formed | highest viscosity among four bile salts | C[C@H](CCC(=O)[O-])[C@H]1CC[C@H]2[C@@H]3CC[C@@H]4C[C@H](O)CC[C@]4(C)[C@H]3CC[C@]12C.[Na+] [NaLC, sodium lithocholate] | – | – | turbid | relatively potent IRI; also recorded: most potent ice recrystallization inhibitor | No IRI activity was observed | IRI active but did not stop the ice growth completely | completely stopped the growth of ice crystals; also recorded: block the growth of ice crystals | completely stopped the growth of ice crystals | significantly smaller ice crystals | comparable to those in the positive control of 1 mg/mL PVA | around 10 mg/mL and ~25 mM | – | – |
| – | – | – | – | – | – | sodium deoxycholate [NaDC] | – | – | clear | weak ice recrystallization inhibitors | – | – | – | – | – | – | – | increased significantly to a level similar to that of NaLC | smaller %MLGS values than PEG |
| – | – | – | – | – | – | C[C@H](CCC(=O)[O-])[C@H]1CC[C@H]2[C@@H]3[C@H](O)C[C@@H]4C[C@H](O)CC[C@]4(C)[C@H]3CC[C@]12C.[Na+] [NaCC, sodium chenodeoxycholate] | -15 | no liquid crystal phase was observed | clear | weak ice recrystallization inhibitor | – | – | – | – | – | – | – | – | smaller %MLGS values than PEG |
